US10076578B2, “Probes for imaging of hypoxia” (Vanderbilt University, priority 2014, dated 2018)
Structures can show the parent of a compound that is named as a salt.

Tests used:
[1] = test system: Human Retinal Microvascular Endothelial Cells (HRMEC); experiment: Western analysis of cell lysates with anti-Hypoxyprobe antibody; format: cell-based; conditions: 100 μM, 4 h, hypoxic vs normoxic HRMEC
Procedure: FIG. 2G. HYPOX-1 accumulation in hypoxic retinal cells occur through nitroimidazole adduct formation. Human Retinal Microvascular Endothelial Cells (HRMEC) were treated with 100 μM HYPOX-1 under normoxic or hypoxic conditions for 4 h. Cell lysates were probed with an anti-Hypoxyprobe antibody by Western analysis.
(§1) Imaging of R28 cells incubated with the hypoxia-sensitive imaging agents further confirmed specificity and mechanism of action.

R28 cells [2] = experiment: BrdU cell proliferation assay (in vitro toxicity); format: cell-based, rat; conditions: up to 100 μM, 24 h
Procedure: FIG. 3A-3B. […] (n=4), p<0.01.
For in vitro toxicity studies, a BrdU cell proliferation assay was performed on R28 cells. The assay was performed according to the manufacturer's protocol with the following specifications. Cells were seeded at 2000 cells/well in a 96-well plate. 24 h after seeding, the cells were serum starved for 6 h. Imaging agents and vehicle controls diluted in complete media were added and allowed to incubate for 24 h. 4 h prior to the end of the incubation, BrdU was added at a concentration of 10 μM.
Both imaging agents were not acutely toxic to retinal cells as assessed by BrdU cell proliferation assays (FIG. 3).

[3] = test system: primary human Müller cells; experiment: in vitro imaging agent uptake assay (microplate fluorescence spectrophotometric assay); format: cell-based; conditions: for increase in hypoxic/normoxic fluorescence intensity ratio: 100 μM; for increase in hypoxic/normoxic fluorescence intensity ratio / dose dependence of fluorescence in hypoxic cells: 12 h hypoxia; for dose dependence of fluorescence in hypoxic cells: Müller cells, n=8
Procedure: (§2) Primary human Müller cells and R28 cell line were grown in low glucose DMEM supplemented with 10% Fetal Bovine Serum, 1× GlutaMAX, and 1× Penicillin-Streptomycin. All cells were maintained in a humidified environment with 5% CO2 at 37° C. unless otherwise noted. For hypoxia induction, assay plates were placed into a humidified chamber and ambient air was displaced with a mixture of 5% CO2 and 95% N2 at a flow rate of 20 L/min for 5 min according to manufacturer instructions and published methods (28). The chamber was clamped and placed at 37° C. for the remainder of the time point. R28 cells were treated with 100 μM pimonidazole hydrochloride diluted in complete media and subjected to hypoxia or normoxia for 4 h.
(§3) To perform in vitro imaging agent uptake assays, R28 cells or primary human Müller cells were seeded at a density of 15,000 cells per well in a 96-well black plate with clear bottom. When 90% confluent, assay plates were either place in hypoxia or kept in normoxia for 12 h. They were treated with imaging agents diluted in complete media and returned to hypoxia or kept in normoxia for 30 min. They were washed 4 times with pre-warmed Hank's Buffered Salt Solution (HBSS), kept in normoxia for 1 h, then washed 4 more times in HBSS. Fluorescence intensity was read ([…]: 490 nm, Emission: 520 nm) using a Synergy Mx Plate Reader from Biotek.
(§4) In order to measure the specificity of HYPOX-1 and HYPOX-2 for hypoxic retinal tissues in vitro, R28 rat retinal neuronal (17, 18) or primary human Müller cells (19) were conditioned in a hypoxic chamber purged with a mixture of nitrogen/carbon dioxide up to 12 h. These two cell lines model predominant oxygen-sensitive cell types in retinal diseases with a hypoxia-ischemia component (20). […] The micromolar doses of HYPOX-1 and HYPOX-2 used in these experiments are modeled on doses used to achieve optimal signal to background ratios using pimonidazole immunohistochemistry (21).

[4] = test system: R28 rat retinal neuronal cells; experiment: as above; format: cell-based; conditions: for dose dependence of fluorescence in hypoxic cells: 12 h hypoxia, n=8
Procedure: as §2, §3, §4

[5] = test system: avascular hypoxic retina of OIR mice; experiment: mouse model of oxygen induced retinopathy (OIR), ex vivo imaging of retinal flatmounts; format: in vivo
Text: FIG. 4A-4F. […] FIGS. 4(A) and 4(C) HYPOX-1 in P13 OIR mouse retina. FIGS. 4(B) and 4(D) Pimonidazole immunostaining colocalizes with HYPOX-1 region. […] FIG. 5. Retinal flatmounts from OIR mice intravenously injected with HYPOX-1 (green) were stained with endothelial cell marker, ICAM-2 (red). Accumulation of HYPOX-1 is observed in avascular retina. The mouse model of oxygen induced retinopathy (OIR) was selected as a mouse model for hypoxia and generated as published (24). Briefly, litters with 6 to 8 pups were placed into a 75% oxygen chamber with dams from P7-P12. On P12, pups were removed from the hyperoxic environment to room air. Imaging agents, vehicle controls and dye controls were intravitreally injected (3 μg in 1 μL injection volume) or intravenously injected via tail vein (60 mg/kg) 6 h after removal from hyperoxic environment. Pimonidazole hydrochloride (Hypoxyprobe Inc.) was injected intraperitoneally at a concentration of 60 mg/kg body weight. Immunofluorescence analysis of retinal tissues was performed by dissecting retinas from ocular tissues and fixing them in 10% neutral buffered formalin for 2 h. Tissues were then rinsed in Tris buffered saline and blocked/permeabilized in 10% donkey serum with 1% Triton X-100/0.05% Tween 20 in TBS for 6 h. Retinas were then stained for ICAM-2 and Hypoxyprobe followed by secondary antibody staining as indicated. […] Staining of excised retinas with ICAM-2 was used to identify retinal vasculature and its association with HYPOX staining. […] In addition, HYPOX accumulation in retinal tissue can be accomplished through intraocular or intravenous injection routes.

R28 cells [6] = experiment: Hypoxyprobe adduct immunostaining of normoxia- or hypoxia-conditioned cells; format: cell-based, rat; conditions: 100 μM
Procedure: as §2, with “FIG. 1A. R28 cells were treated with 100 μM pimonidazole hydrochloride (Hypoxyprobe) and subjected to normoxia or hypoxia-conditioning for 4 h, followed by Hypoxyprobe adduct immunostaining. […] Primary” for “Primary”, “h. In order to measure the specificity of HYPOX-1 and HYPOX-2 for hypoxic retinal tissues in vitro, R28 rat retinal neuronal (17, 18) or primary human Müller cells (19) were conditioned in a hypoxic chamber purged with a mixture of nitrogen/carbon dioxide up to 12 h. These two cell lines model predominant oxygen-sensitive cell types in retinal diseases with a hypoxia-ischemia component (20). […]” for “h.”

R28 cells [7] = experiment: immunofluorescence imaging of cells incubated with imaging agent; format: cell-based, rat; conditions: 100 μM, 4 h
Procedure: FIG. 2A-2F. R28 retinal neuronal cell lines conditioned under normoxic or hypoxic (4 h) conditions were incubated with 100 μM HYPOX-2 followed by fixation and immunostaining with an antibody specific for pimonidazole adducts in hypoxic cells.
Immunofluorescence analysis of cells was performed by seeding R28 cells at a density of 15,000 cells per well of 8-well chamber slides. When 90% confluent, cells were treated with either imaging agent and pimonidazole hydrochloride or imaging agent only, diluted in complete media, and placed in hypoxia or normoxia for 4 h. Cells were washed 4 times in HBSS, fixed for 10 min with 10% neutral buffered formalin at room temperature, washed 3 times with tris buffered saline and mounted with Prolong Gold with DAPI mounting media.
as §1

Structure (SMILES)	nitroimidazole adduct formation (Western) [1]	cell proliferation (BrdU incorporation) (R28 cells [2])	increase in hypoxic/normoxic fluorescence intensity ratio ([3]; human Müller cells)	dose dependence of fluorescence in hypoxic cells [3]	detectability of probe ([3]; concentrations lower than 50 μM)	fluorescence intensity of hypoxia-conditioned vs normoxia-conditioned cells ([3]; human Müller cells)	fluorescence intensity of hypoxia-conditioned vs normoxia-conditioned cells [4]	dose dependence of fluorescence in hypoxic cells [4]	accumulation in retina, intraocularly injected ([5]; OIR mice P13, intravitreal 3 μg, retinal flatmounts)	accumulation in retina, intravenously injected ([5]; OIR mice, tail vein 60 mg/kg, ICAM-2 co-staining)	accumulation in retina of age matched control mice ([5]; room air control mice with fully vascularized retinas)	Hypoxyprobe adduct immunostaining, hypoxia-conditioned cells (R28 cells [6]; 4 h hypoxia)	Hypoxyprobe adduct immunostaining, normoxia-conditioned cells (R28 cells [6]; 4 h normoxia)	Hypoxyprobe immunostaining of central avascular retina ([5]; OIR mice, intraperitoneal 60 mg/kg)	accumulation in retina of room air mice (Hypoxyprobe staining) ([5]; room air mice)	pimonidazole adducts by adduct-specific antibody (R28 cells [7]; hypoxic R28 cells, but not normoxic cells)	accumulation in cells (fluorescence imaging) (R28 cells [7]; hypoxic vs normoxic R28 cells)	greater fluorescence intensity in hypoxia-conditioned cells ([3]; 10 μM, human Müller cells)
O=C1OC2(c3ccc(O)cc3Oc3cc(O)ccc32)c2ccc(NC(=S)NCCCCCn3ccnc3[N+](=O)[O-])cc21 [HYPOX-1]	Adduct formation was increased in hypoxic cells	no significant decrease in cell proliferation	5 fold	dose-dependent fluorescence enhancement	not detectable	significantly higher fluorescence intensity	significantly higher fluorescence intensity	dose-dependent fluorescence enhancement	accumulation of intraocularly-injected HYPOX-1 in central avascular retinas	accumulated in avascular regions	did not accumulate							
O=[N+]([O-])c1nccn1CC(O)CN1CCCCC1 (stereo not drawn) [pimonidazole hydrochloride, reference compound]												positive staining	minimal fluorescence	positive immunostaining	no pimonidazole accumulation			
O=C1OC2(c3ccc(O)cc3Oc3cc(O)ccc32)c2ccc(NC(=S)NCC3CCN(CC(O)Cn4ccnc4[N+](=O)[O-])CC3)cc21 (stereo not drawn) [HYPOX-2]		no significant decrease in cell proliferation	11 fold	dose-dependent fluorescence enhancement		significantly higher fluorescence intensity	significantly higher fluorescence intensity	dose-dependent fluorescence enhancement								positive for pimonidazole adducts	accumulated in hypoxic cells but not normoxic cells	32 fold
